From ChEMBL document CHEMBL6096725, “Repurposing Linezolid in Conjunction with Histone Deacetylase Inhibitor Access in the Realm of Glioblastoma Therapies” (J Med Chem, 2025)
Active and inactive are the calls of the source. The rule behind the calls is not given here.

Columns and labels:
TZM-resistant GBM cell [1] = assay: Disruption of DNA repair in patient-derived human TMZ-resistant GBM cells assessed as decrease in RAD51 level at 20 uM upto 80 hrs by Western blot analysis; assay type: functional, cell-based
TZM-resistant GBM cell [2] = assay: Disruption of DNA repair in patient-derived human TMZ-resistant GBM cells assessed as decrease in CtIP level at 20 uM upto 80 hrs by Western blot analysis; assay type: functional, cell-based
TZM-resistant GBM cell [3] = assay: Suppression of DNA replication in patient-derived human TMZ-resistant GBM cells by GSEA analysis; assay type: functional, cell-based
TZM-resistant GBM cell [4] = assay: Disruption of DNA repair in patient-derived human TMZ-resistant GBM cells assessed as decrease in CtIP level upto 80 uM incubated for 72 hrs by Western blot analysis; assay type: functional, cell-based
U-87 MG [5] = assay: Disruption of DNA homologous recombination repair in human U-87 MG cells assessed as HR repaired cells at 5 uM incubated for 48 hrs by flow cytometry relative to control; assay type: functional, U-87MG ATCC
[6] = biological target: T1, Histone deacetylase (Homo sapiens) (UniProt Q13547+O15379+Q9UBN7+Q92769+Q9UQL6+Q8WUI4+Q9BY41+Q96DB2+P56524+Q9UKV0+Q969S8); assay: Inhibition of HDAC in human U-87 MG cells assessed as increase in acetyl histone H3 at K9 sites at 10 uM incubated for 1 hr by Western blot analysis; assay type: cell-based
[7] = biological target: T1, Histone deacetylase (Homo sapiens); assay: Inhibition of HDAC in human U-87 MG cells assessed as increase in acetyl histone H3 at K16 sites at 10 uM incubated for 1 hr by Western blot analysis; assay type: cell-based
TZM-resistant GBM cell [8] = assay: Disruption of DNA repair in patient-derived human TMZ-resistant GBM cells assessed as increase in ATM phosphorylation upto 80 uM incubated for 72 hrs by Western blot analysis; assay type: functional, cell-based
TZM-resistant GBM cell [9] = assay: Disruption of DNA repair in patient-derived human TMZ-resistant GBM cells assessed as decrease in CtIP level at 40 uM upto 80 hrs by Western blot analysis; assay type: functional, cell-based
[10] = biological target: T1, Histone deacetylase (Homo sapiens); assay: Inhibition of HDAC in human U-87 MG cells assessed as increase in acetyl histone H3 at K18 sites at 10 uM incubated for 1 hr by Western blot analysis; assay type: cell-based
[11] = Drug uptake in C57BL/6 mouse brain at 360 mg/kg, ip measured after 30 mins by UPLC analysis; assay type: ADME, organism-based; conditions: in vivo, 0.5 h
TMZ-resistant CT-2A cell [12] = assay: Antitumor activity against mouse CT-2A cells implanted in C57BL/6 mouse assessed as tumor growth inhibition at 10 mg/kg, ip measured for 10 to 17 days by IVIS analysis; assay type: functional, organism-based; conditions: time 10-17 day
TZM-resistant GBM cell [13] = assay: Induction of RAD51 degradation in human TMZ-resistant GBM cells assessed increase in RAD51 ubiquitination upto 20 uM incubated for 24 hrs by Western blot analysis; assay type: cell-based
[14] = Drug uptake in C57BL/6 mouse plasma at 360 mg/kg, ip measured after 30 mins by UPLC analysis; assay type: ADME, organism-based; conditions: in vivo, 0.5 h
TZM-resistant GBM cell [15] = assay: Disruption of DNA repair in patient-derived human TMZ-resistant GBM cells assessed as decrease in RAD51 level upto 80 uM incubated for 72 hrs by Western blot analysis; assay type: functional, cell-based
[16] = biological target: T1, Histone deacetylase (Homo sapiens); assay: Inhibition of HDAC in human U-87 MG cells assessed as increase in acetyl histone H3 at K8 sites at 10 uM incubated for 1 hr by Western blot analysis; assay type: cell-based
TZM-resistant GBM cell [17] = assay: Effect on cellular proliferation dynamics in patient-derived human TMZ-resistant GBM cells at 10 uM incubated for 72 hrs by RNA-seq analysis; assay type: functional, cell-based
TZM-resistant GBM cell [18] = assay: Induction of cell cycle arrest in patient-derived human TMZ-resistant GBM cells assessed as decrease in accumulation of cells at G0/G1 phase at 1 to 20 uM; assay type: functional, cell-based; conditions: dose 1-20 µM
[19] = biological target: T1, Histone deacetylase (Homo sapiens); assay: Inhibition of HDAC in human U-87 MG cells assessed as increase in acetyl histone H3 at K14 sites at 10 uM incubated for 1 hr by Western blot analysis; assay type: cell-based
[20] = biological target: T1, Histone deacetylase (Homo sapiens); assay: Inhibition of HDAC in human U-87 MG cells assessed as increase in acetyl histone H3 at K4 sites at 10 uM incubated for 1 hr by Western blot analysis; assay type: cell-based
[21] = biological target: T1, Histone deacetylase (Homo sapiens); assay: Inhibition of HDAC in human U-87 MG cells assessed as increase in acetyl histone H3 at K27 sites at 10 uM incubated for 1 hr by Western blot analysis; assay type: cell-based
TZM-resistant GBM cell [22] = assay: Disruption of DNA repair in patient-derived human TMZ-resistant GBM cells assessed as decrease in RAD51 level at 40 uM upto 80 hrs by Western blot analysis; assay type: functional, cell-based
U-87 MG [23] = assay: Disruption of DNA homologous recombination repair in human U-87 MG cells assessed as HR repaired cells at 2.5 uM incubated for 48 hrs by flow cytometry relative to control; assay type: functional, U-87MG ATCC
TMZ-resistant CT-2A cell [24] = assay: Antitumor activity against mouse TMZ-resistant CT-2A cells implanted in C57BL/6 mouse assessed as tumor growth inhibition at 50 mg/kg, po measured for 17 to 25 days by IVIS analysis; assay type: functional, organism-based; conditions: time 17-25 day
TZM-resistant GBM cell [25] = assay: Antitumor activity against patient-derived human TMZ-resistant GBM cells implanted in C57BL/6 mouse assessed as inhibition of tumor cell growth in brain at 10 to 20 mg/kg administered on every 3 days measured for 60 days in presence of TMZ; assay type: functional, organism-based; conditions: dose 10-20 mg/kg, time 60.0 day
TZM-resistant GBM cell [26] = assay: Disruption of DNA repair in patient-derived human TMZ-resistant GBM cells assessed as decrease in RPA32 level upto 80 uM incubated for 72 hrs by Western blot analysis; assay type: functional, cell-based
[27] = biological target: T1, Histone deacetylase (Homo sapiens); assay: Inhibition of HDAC in human U-87 MG cells assessed as increase in acetyl histone H3 at K5 sites at 10 uM incubated for 1 hr by Western blot analysis; assay type: cell-based
TZM-resistant GBM cell [28] = assay: Induction of cell cycle arrest in patient-derived human TMZ-resistant GBM cells assessed as accumulation of cells at G2/M phase at 1 to 20 uM; assay type: functional, cell-based; conditions: dose 1-20 µM
Mus musculus = assay: In vivo antitumor activity against patient-derived human TMZ-resistant GBM cells implanted in C57BL/6 mouse assessed as increase in animal survival at 10 to 20 mg/kg administered on every 3 days measured for 60 days in presence of TMZ; assay type: functional, organism-based; conditions: dose 10-20 mg/kg, time 60.0 day
[29] = biological target: T1, Histone deacetylase (Homo sapiens); assay: Inhibition of HDAC in human U-87 MG cells assessed as increase in acetyl histone H3 at K56 sites at 10 uM incubated for 1 hr by Western blot analysis; assay type: cell-based
TZM-resistant GBM cell [30] = assay: Suppression of mitotic nuclear division in patient-derived human TMZ-resistant GBM cells by GSEA analysis; assay type: functional, cell-based

C[C@@H]1C[C@@H]([C@H](O)CC2CC(=O)NC(=O)C2)C(=O)[C@@H](C)C1
Activity (TZM-resistant GBM cell [1]): Active; Less Pronounced Effect Observed | Activity (TZM-resistant GBM cell [2]): Active; Less Pronounced Effect Observed

O=C(/C=C/c1ccc(CNC[C@H]2CN(c3ccc(N4CCOCC4)c(F)c3)C(=O)O2)cc1)NO
Activity (TZM-resistant GBM cell [3]): Active | Activity (TZM-resistant GBM cell [4]): Active | Activity (U-87 MG [5]): 5.06% | inhibition [6]: Active | inhibition [7]: Active | Activity (TZM-resistant GBM cell [8]): Active; Result Suggests Activation Of Physiological Response To Dsbs Induced By Compound | Activity (TZM-resistant GBM cell [9]): Active; Rapid And Significant Decrease In Expression Observed Over Time | inhibition [10]: Active | Drug uptake [11]: Active | inhibition (TMZ-resistant CT-2A cell [12]): Active | Activity (TZM-resistant GBM cell [13]): Active | Drug uptake [14]: Active | Activity (TZM-resistant GBM cell [15]): Active | inhibition [16]: Active | Activity (TZM-resistant GBM cell [17]): Active | Activity (TZM-resistant GBM cell [18]): Active | inhibition [19]: Active | inhibition [20]: Active | inhibition [21]: Active | Activity (TZM-resistant GBM cell [22]): Active; Rapid And Significant Decrease In Expression Observed Over Time | Activity (U-87 MG [23]): 11.4% | inhibition (TMZ-resistant CT-2A cell [24]): Active | inhibition (TZM-resistant GBM cell [25]): Active | Activity (TZM-resistant GBM cell [26]): Active | inhibition [27]: Active | Activity (TZM-resistant GBM cell [28]): Active | Activity (Mus musculus): Active | inhibition [29]: Active | Activity (TZM-resistant GBM cell [30]): Active
